ChEMBL document CHEMBL4038274, “Design, synthesis and biological evaluation of multifunctional tacrine-curcumin hybrids as new cholinesterase inhibitors with metal ions-chelating and neuroprotective property” (Bioorg Med Chem, 2017)
Activity calls are given as the source filed them. The calls are words filed in the database; no cut-off is given here.

Experiments:
[1] = Metal chelating activity assessed as compound-Cu2+ complex formation at 25 uM after 30 mins by UV spectrophotometric analysis; format: functional
[2] = Metal chelating activity assessed as compound-Fe2+ complex formation at 25 uM after 30 mins by UV-spectrophotometric analysis; format: functional
[3] = target: Acetylcholinesterase (Torpedo californica, UniProt P04058)
Description: Inhibition of Torpedo californica AChE using acetylthiocholine iodide as substrate preincubated for 5 mins followed by substrate addition measured at 1 min interval for 3 mins by Ellman's method

[4] = target: Cholinesterase (Equus caballus, UniProt P81908)
Description: Inhibition of equine serum BuChE using butyrylthiocholine iodide as substrate preincubated for 5 mins followed by substrate addition measured at 1 min interval for 3 mins by Ellmans method

[5] = test system: PC-12; test: Neuroprotective activity against Abeta42-induced toxicity in rat PC12 cells assessed as increase in cell viability at 0.1 to 10 uM after 24 hrs by MTT assay; format: functional, cell-based
[6] = test system: PC-12; test: Neuroprotective activity against H202-induced toxicity in rat PC12 cells assessed as increase in cell viability at 0.1 to 10 uM after 24 hrs by MTT assay; format: functional, cell-based
[7] = test system: PC-12; test: Neuroprotective activity against Abeta42-induced toxicity in rat PC12 cells assessed as increase in cell viability after 24 hrs by MTT assay; format: functional, cell-based
[8] = test system: PC-12; test: Cytotoxicity against rat PC12 cells at 0.1 to 10 uM after 24 hrs by MTT assay; format: cell-based; conditions: pc-12, 24 h
[9] = test system: PC-12; test: Neuroprotective activity against H202-induced toxicity in rat PC12 cells assessed as increase in cell viability after 24 hrs by MTT assay; format: functional, cell-based

Chain of Cholinesterase (P81908 whole entry): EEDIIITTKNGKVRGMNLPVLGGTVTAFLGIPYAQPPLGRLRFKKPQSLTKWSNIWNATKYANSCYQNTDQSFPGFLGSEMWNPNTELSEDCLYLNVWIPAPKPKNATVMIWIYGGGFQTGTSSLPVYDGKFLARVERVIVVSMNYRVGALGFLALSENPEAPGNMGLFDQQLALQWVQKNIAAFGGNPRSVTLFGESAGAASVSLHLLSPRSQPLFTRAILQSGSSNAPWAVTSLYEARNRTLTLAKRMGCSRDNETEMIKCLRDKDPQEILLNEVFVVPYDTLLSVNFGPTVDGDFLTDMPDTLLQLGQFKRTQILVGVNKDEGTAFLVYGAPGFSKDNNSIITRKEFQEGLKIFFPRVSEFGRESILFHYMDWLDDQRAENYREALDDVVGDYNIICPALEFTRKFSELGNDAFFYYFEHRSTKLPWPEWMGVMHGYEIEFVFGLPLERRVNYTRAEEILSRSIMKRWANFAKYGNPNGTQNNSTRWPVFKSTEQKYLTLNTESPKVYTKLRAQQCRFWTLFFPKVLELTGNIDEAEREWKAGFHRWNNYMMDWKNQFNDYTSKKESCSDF
Chain of Acetylcholinesterase (P04058 whole entry): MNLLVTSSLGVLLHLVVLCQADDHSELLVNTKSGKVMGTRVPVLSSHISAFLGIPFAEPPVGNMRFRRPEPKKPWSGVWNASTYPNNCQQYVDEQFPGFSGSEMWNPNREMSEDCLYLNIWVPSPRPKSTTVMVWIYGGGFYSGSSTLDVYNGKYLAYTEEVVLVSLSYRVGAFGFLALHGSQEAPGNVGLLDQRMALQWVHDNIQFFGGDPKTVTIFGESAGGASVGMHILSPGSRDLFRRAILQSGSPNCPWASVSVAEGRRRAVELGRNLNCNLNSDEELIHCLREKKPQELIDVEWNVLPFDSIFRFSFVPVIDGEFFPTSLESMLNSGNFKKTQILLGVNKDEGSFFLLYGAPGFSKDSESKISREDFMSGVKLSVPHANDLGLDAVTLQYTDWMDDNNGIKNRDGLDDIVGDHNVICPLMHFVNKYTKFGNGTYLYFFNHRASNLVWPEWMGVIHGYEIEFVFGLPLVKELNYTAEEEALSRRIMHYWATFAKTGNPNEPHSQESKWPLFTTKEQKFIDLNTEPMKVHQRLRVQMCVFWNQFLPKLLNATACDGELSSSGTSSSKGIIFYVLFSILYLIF

| SMILES | IC50 [3] [µM] | IC50 [4] [µM] | other results |
| --- | --- | --- | --- |
| CC(=O)CC(=O)NCCCCNc1c2c(nc3ccccc13)CCCC2 | 0.09 | 0.16 | Activity [1]: Active; Activity [2]: Active |
| CC(=O)/C(=C\c1ccc(O)cc1)C(=O)NCCCCNc1c2c(nc3ccccc13)CCCC2 | 3.8 | 4.77 |  |
| COc1cc(/C=C/C(=O)CC(=O)/C=C/c2ccc(O)c(OC)c2)ccc1O |  |  | Activity [5]: Active; Activity [6]: Active |
| COc1cc(/C=C(\C(C)=O)C(=O)NCCCCCCNc2c3c(nc4ccccc24)CCCC3)ccc1O | 0.29 | 1.5 | Activity [1]: Active; Activity [2]: Active |
| COc1cc(/C=C(\C(C)=O)C(=O)NCCCNc2c3c(nc4ccccc24)CCCC3)ccc1O | 1.26 | 1.87 |  |
| CC(=O)CC(=O)NCCCCCCNc1c2c(nc3ccccc13)CCCC2 | 0.57 | 0.22 |  |
| COc1cc(/C=C(\C(C)=O)C(=O)NCCCCNc2c3c(nc4ccccc24)CCCC3)ccc1O | 2.1 | 2.11 |  |
| CC(=O)C(Cc1ccc(O)cc1)C(=O)NCCCCNc1c2c(nc3ccccc13)CCCC2 (stereo not drawn) | 1.99 | 0.39 |  |
| CC(=O)/C(=C\c1ccc(O)cc1)C(=O)NCCCCCCNc1c2c(nc3ccccc13)CCCC2 | 2.95 | 2.24 |  |
| CC(=O)C(Cc1ccc(O)cc1)C(=O)NCCCCCCNc1c2c(nc3ccccc13)CCCC2 (stereo not drawn) | 0.13 | 0.2 |  |
| COc1cc(CC(C(C)=O)C(=O)NCCCCCCNc2c3c(nc4ccccc24)CCCC3)ccc1O (stereo not drawn) | 0.08 | 0.22 | Activity [1]: Active; Activity [2]: Active; Activity [7]: Dose-dependent effect; Activity [8]: Non-Toxic; Activity [9]: Dose-dependent effect |
| CC(=O)CC(=O)NCCNc1c2c(nc3ccccc13)CCCC2 | 0.46 | 0.31 |  |
| CC(=O)CC(=O)NCCCNc1c2c(nc3ccccc13)CCCC2 | 0.24 | 0.06 |  |
| CC(=O)C(Cc1ccc(O)cc1)C(=O)NCCCNc1c2c(nc3ccccc13)CCCC2 (stereo not drawn) | 8.76 | 0.83 |  |
| CC(=O)/C(=C\c1ccc(O)cc1)C(=O)NCCCNc1c2c(nc3ccccc13)CCCC2 | 9.64 | 1.6 |  |
| COc1cc(CC(C(C)=O)C(=O)NCCCNc2c3c(nc4ccccc24)CCCC3)ccc1O (stereo not drawn) | 5.71 | 1.31 |  |
| COc1cc(CC(C(C)=O)C(=O)NCCCCNc2c3c(nc4ccccc24)CCCC3)ccc1O (stereo not drawn) | 3.68 | 3.38 |  |
